Laboratory results reported in ChEMBL document CHEMBL1938333, “Novel, potent and orally bioavailable indolizidinone-derived inhibitors of the hepatitis C virus NS3 protease” (Bioorg Med Chem Lett, 2012).

Key:
[1] = test system: Hepatitis C virus; assay: Inhibition of HCV1b NS3/4A protease by FRET assay; set-up: species or system Hepatitis C virus subtype 1b
[2] = test system: Hepatitis C virus; assay: Antiviral activity against HCV1b infected in human 1b-Rluc cells by replicon assay; assay type: functional, organism-based, Hepacivirus hominis; conditions: genotype 1b
[3] = Oral bioavailability in Sprague-Dawley rat at 10 mg/kg; assay type: ADME, organism-based; conditions: in vivo
[4] = Mean residence time in Sprague-Dawley rat at 1 mg/kg, iv; assay type: ADME, organism-based; set-up: dose 1 mg/kg, route intravenous; conditions: in vivo
[5] = Clearance in Sprague-Dawley rat at 1 mg/kg, iv; assay type: ADME, organism-based; set-up: dose 1 mg/kg, route intravenous; conditions: in vivo
[6] = Lipophilicity, log D of the compound; assay type: physicochemical; conditions: octanol/water

SMILES	IC50 [1] [nM]	EC50 [2] [nM]	bioavailability [3] [%]	MRT [4] [min]	clearance [5] [mL/min/kg]	logD [6]
C=C[C@@H]1C[C@]1(NC(=O)[C@@H]1C[C@@H](Oc2cc(-c3nc(C(C)C)cs3)nc3c(Cl)c(OC)ccc23)[C@H]2CCCC(=O)N21)C(=O)NS(=O)(=O)C1CC1	32					
C=C[C@@H]1C[C@]1(NC(=O)[C@@H]1C[C@@H](Oc2cc(-c3nc(C(C)C)cs3)nc3c(C)c(OC)ccc23)[C@H]2CC[C@H](C(C)C)C(=O)N21)C(=O)NS(=O)(=O)C1CC1	3	213	44	52.8	14.8	4.5
C=C[C@@H]1C[C@]1(NC(=O)[C@@H]1C[C@@H](Oc2cc(-c3nc(C(C)C)cs3)nc3c(Cl)c(OCCN4CCOCC4)ccc23)[C@H]2CC[C@H](C(C)C)C(=O)N21)C(=O)NS(=O)(=O)C1CC1	3	81	35	44.4	26.2	3.26
C=C[C@@H]1C[C@]1(NC(=O)[C@@H]1C[C@@H](Oc2cc(-c3nc(C(C)C)cs3)nc3c(Cl)c(OCCOC)ccc23)[C@H]2CC[C@H](C(C)C)C(=O)N21)C(=O)NS(=O)(=O)C1CC1	1	75	21	75.6	11.2	3.54

Continued, values first:

IC50 [1] [nM]	EC50 [2] [nM]	bioavailability [3] [%]	MRT [4] [min]	clearance [5] [mL/min/kg]	logD [6]	SMILES
1	144					C=C[C@@H]1C[C@]1(NC(=O)[C@@H]1C[C@@H](Oc2cc(-c3cccc(C(C)C)n3)nc3c(Cl)c(OCCOC)ccc23)[C@H]2CC[C@H](C(C)C)C(=O)N21)C(=O)NS(=O)(=O)C1CC1
47						C=C[C@@H]1C[C@]1(NC(=O)[C@@H]1C[C@@H](Oc2cc(-c3nc(C(C)C)cs3)nc3c(C)c(OC)ccc23)[C@H]2CCCC(=O)N21)C(=O)NS(=O)(=O)C1CC1
2.6						C=C[C@@H]1C[C@]1(NC(=O)[C@@H]1C[C@@H](Oc2cc(-c3csc(NC(C)C)n3)nc3c(Cl)c(OC)ccc23)CN1C(=O)[C@@H](NC(=O)OC1CCCC1)C(C)(C)C)C(=O)O
2	76				3.85	C=C[C@@H]1C[C@]1(NC(=O)[C@@H]1C[C@@H](Oc2cc(-c3nc(C(C)C)cs3)nc3c(Cl)c(OC)ccc23)[C@H]2CC[C@H](C(C)C)C(=O)N21)C(=O)NS(=O)(=O)C1CC1
2	818					C=C[C@@H]1C[C@]1(NC(=O)[C@@H]1C[C@@H](Oc2cc(OCC)nc3c(C)c(OC)ccc23)[C@H]2CC[C@H](C(C)C)C(=O)N21)C(=O)NS(=O)(=O)C1CC1
